Test results: patent US20130131178A1, “USE OF OXALOACETATE IN THE TREATMENT OF ISCHAEMIA” (UNIVERSIDADE DE SANTIAGO DE COMPOSTELA, priority 2010, published 2013)

What was measured:
Type in all cases: in vivo, male Sprague-Dawley (SD) rats
[1] = system: blood glutamate levels; assay: Effect of oxaloacetate administration on blood glutamate and aspartate levels in healthy animals; set-up: effect on glutamate levels: dose or concentration left out as unconfirmed
Procedure: The oxaloacetate used (Sigma-Aldrich, Ref, 171263, 95%) was dissolved in saline solution to a concentration of 10 mg/mL and the pH adjusted to 7.4. […]
(§1) The study protocols for male Sprague-Dawley (SD) rats (Charles River Laboratories; France) weighing between 300 and 350 g were approved by the Animal Use and Care Committee at the Hospital de Santiago de Compostela.
Anaesthesia was induced by inhalation of 5% sevoflurane in a mixture of nitrous oxide and oxygen (70/30). A rectal temperature of 37.5° C. was maintained. Glucose levels (180-220 mg/dL) were analysed prior to the intervention.
(§2) Aspartate and glutamate levels in blood were analysed according to the method described in the following reference (White, J. A., R. J. Hart, and J. C. Fry, An evaluation of the Waters Pico-Tag system for the amino-acid analysis of food materials. J Automat Chem, 1986. 8(4): p. 170-7).
Likewise, no changes in aspartate levels were observed (FIG. 1b).
This increase in aspartate levels confirms that glutamate is being metabolised by the enzyme GOT as a result of oxaloacetate treatment.
The […] and aspartate levels in blood were established in a control group treated with saline.

[2] = system: blood glutamate levels; assay: Effect of oxaloacetate on blood glutamate levels in an animal model of focal ischaemia (MCAO); settings: 3.5 mg/100 g IV 90 minutes post-occlusion, 4 hours post-occlusion
Procedure: The oxaloacetate used (Sigma-Aldrich, Ref, 171263, 95%) was dissolved in saline solution to a concentration of 10 mg/mL and the pH adjusted to 7.4. As the average weight of the experimental animals was 325 g and the dose administered was 3.5 mg/100 g body weight, each animal received an average volume of 1.2 mL of 10 mg/mL oxaloacetate.
as §1
Anaesthesia was induced by inhalation of 5% sevoflurane in a mixture of nitrous oxide and oxygen (70/30). A rectal temperature of 37.5° C. was maintained. Glucose levels (180-220 mg/dL) were analysed prior to the intervention. […]
as §2
Two groups were designed: an MCAO group treated with saline (control group) and an MCAO group treated with 3.5 mg/100 g oxaloacetate IV 90 minutes post-occlusion. The blood glutamate levels and infarct and oedema volumes were determined in both groups. […]

[3] = system: Middle cerebral artery occlusion (MCAO) model of cerebral ischaemia; assay: Infarct and oedema volumes by magnetic resonance imaging in the MCAO model of cerebral ischaemia; settings: 3.5 mg/100 g IV 90 minutes post-occlusion
Procedure: The oxaloacetate used (Sigma-Aldrich, Ref, 171263, 95%) was dissolved in saline solution to a concentration of 10 mg/mL and the pH adjusted to 7.4. As the average weight of the experimental animals was 325 g and the dose administered was 3.5 mg/100 g body weight, each animal received an average volume of 1.2 mL of 10 mg/mL oxaloacetate. The study protocols for male Sprague-Dawley (SD) rats (Charles River Laboratories; France) weighing between 300 and 350 g were approved by the Animal Use and Care Committee at the Hospital de Santiago de Compostela. Anaesthesia was induced by inhalation of 5% sevoflurane in a mixture of nitrous oxide and oxygen (70/30). A rectal temperature of 37.5° C. was maintained. Glucose levels (180-220 mg/dL) were analysed prior to the intervention. Middle cerebral artery occlusion (MCAO) was used as a model of cerebral ischaemia, as described in the literature (Longa, E. Z., et al., Reversible middle cerebral artery occlusion without craniectomy in rats. Stroke, 1989. 20(1): p. 84-91). […] The infarct and oedema volumes were determined by magnetic resonance imaging. […] The blood glutamate levels and infarct and oedema volumes were determined in both groups. […]

With `O=C(O)CC(=O)C(=O)O` [oxaloacetate] the “effect on glutamate levels” value ([1]; administration via bolus (IV)) was “no effect”, the “decrease in serum glutamate levels with respect to basal levels” value ([1]; healthy animals, 3.5 mg/100 g IV, two hours post-administration) was 60% and the “drop of blood glutamate levels below basal levels” value [2] was 50%. The “infarct volume smaller than in the control group” value ([3]; 24 hours post-ischaemia) was “approximately 40%” and the “decrease of infarct volume” value ([3]; at 7 days) was 80%.
